# Results published in paper PMC10766610, “DCAF1-based PROTACs with activity against clinically validated targets overcoming intrinsic- and acquired-degrader resistance” (Nature Communications, 2024).
# Target: T1, LIMK2 (Homo sapiens, UniProt P53671)
# T1 construct: host or cells: HEK293T
# Assay: Immunoblot of LIMK2 in HEK293T cells
# Format: cell-based
# Conditions: 6 h
# Experimental: Whole cell lysates for immunoblotting were prepared by pelleting cells at 4 °C (300 g) for 3 min. Cell pellets were then washed 1x with PBS and resuspended in RIPA lysis buffer (VWR, cat # 97063-270) supplemented with protease (Thermo Scientific, cat # A32955) and phosphatase (Thermo Scientific, cat # A32957) inhibitor tablets. Lysates were clarified at 16,000 × g for 15 min at 4 °C prior to quantification by Lowry assay (Bio-Rad cat # 5000113 and cat # 5000114). Whole-cell lysates were loaded into 4–20% Criterion TGX Precast 18 well gels (Bio-Rad, cat # 5671094) and separated by electrophoreses at 120 V for 1 h. The gels were transferred to a nitrocellulose membrane using the Trans-Blot Turbo (Bio-Rad) for 7 min and then blocked for 1 h at room temperature in Odyssey blocking buffer (LICOR Biosciences, cat # 927-50000). Membranes were probed with the appropriate primary antibodies (diluted 1:1000) overnight at 4 °C in 20% Odyssey blocking buffer in 1x TBST. Membranes were washed three times with 1x TBST (5 min per wash), and then incubated with IRDye goat anti-mouse (LICOR, cat # 926-32210) or goat anti-rabbit (LICOR, cat # 926-32211) secondary antibody diluted 1:10,000 in 20% Odyssey blocking buffer for 1 h at room temperature. After three 5-min washes with 1x TBST, the immunoblots were visualized using the ODYSSEY Infrared Imaging System (LICOR). […]
# T1 sequence (P53671 whole entry): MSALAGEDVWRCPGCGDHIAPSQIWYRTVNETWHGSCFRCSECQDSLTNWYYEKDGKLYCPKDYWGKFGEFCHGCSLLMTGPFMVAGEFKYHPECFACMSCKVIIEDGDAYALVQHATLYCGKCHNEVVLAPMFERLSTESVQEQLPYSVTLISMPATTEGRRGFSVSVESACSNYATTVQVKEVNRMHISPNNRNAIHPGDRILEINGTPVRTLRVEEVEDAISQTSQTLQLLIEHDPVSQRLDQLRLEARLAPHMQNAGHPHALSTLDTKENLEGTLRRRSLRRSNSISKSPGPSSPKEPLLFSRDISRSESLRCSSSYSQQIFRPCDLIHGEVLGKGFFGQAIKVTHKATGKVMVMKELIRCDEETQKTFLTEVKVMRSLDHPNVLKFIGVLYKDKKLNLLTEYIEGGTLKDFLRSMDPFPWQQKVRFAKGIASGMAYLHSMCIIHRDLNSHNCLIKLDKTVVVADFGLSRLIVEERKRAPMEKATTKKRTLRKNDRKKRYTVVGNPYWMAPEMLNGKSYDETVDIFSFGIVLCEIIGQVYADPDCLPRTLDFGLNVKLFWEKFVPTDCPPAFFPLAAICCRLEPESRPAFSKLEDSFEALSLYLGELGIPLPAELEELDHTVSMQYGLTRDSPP
compound,measurement,value
Cc1nc(Nc2ncc(C(=O)Nc3c(C)cccc3Cl)s2)cc(N2CCC(OC3CCN(CCCCCCCC(=O)N4CCN(c5ccc6c(NCCN)nc(C7(c8ccc(Cl)cc8)CCCCC7)nc6c5)CC4)CC3)CC2)n1 [DDa-1],LIMK2 protein levels,significant reduction in protein levels
